# Experimental data published in patent US9265253B2, “Use of macrocyclic picolinamides as fungicides” (DOW AGROSCIENCES LLC, priority 2013, dated 2016).
# Read-outs that look alike come from different tables or passages of the source.
# Experiments:
# Assay type in all cases: in vivo
# Uncinula necator = experiment: Grape Powdery Mildew (UNCINE) disease control; conditions: Erysiphe necator, topical, 24 h, 1 Day Protectant, read-out: Disease Control UNCINE 1 DP
# Procedure: Technical grades of materials were dissolved in acetone, which were then mixed with nine volumes of water containing 110 ppm Triton X-100. The fungicide solutions were applied onto wheat seedlings using an automated booth sprayer to run-off. All sprayed plants were allowed to air dry prior to further handling. All fungicides were evaluated using the aforementioned method for their activity vs. all target diseases. Wheat leaf blotch and brown rust activity were also evaluated using track spray applications, in which case the fungicides were formulated as EC formulations, containing 0.1% Trycol 5941 in the spray solutions. Wheat plants (variety Yuma) were grown from seed in a greenhouse in 50% mineral soil/50% soil-less Metro mix until the first leaf was fully emerged, with 7-10 seedlings per pot. These plants were inoculated with an aqueous spore suspension of Septoria tritici either prior to or after fungicide treatments. After inoculation the plants were kept in 100% relative humidity (one day in a dark dew chamber followed by two to three days in a lighted dew chamber at 20° C.) to permit spores to germinate and infect the leaf. The plants were then transferred to a greenhouse set at 20° C. for disease to develop. When disease symptoms were fully expressed on the 1st leaves of untreated plants, infection levels were assessed on a scale of 0 to 100 percent disease severity. Percent disease control was calculated using the ratio of disease severity on treated plants relative to untreated plants. Grape seedlings (variety Carignane) were grown in soil-less Metro mix, with one plant per pot, and used in the test when approximately one month old. Plants were inoculated 24 hr after fungicide treatment by shaking spores from infected leaves over test plants. Plants were maintained in a greenhouse set at 20° C. until disease was fully developed. Fungicide formulation, application and disease assessment on the sprayed leaves followed the procedures as described in the Example A.
# Erysiphe cichoracearum = experiment: Powdery Mildew of Cucumber (ERYSCI) disease control; conditions: Golovinomyces cichoracearum, topical, 24 h, 1 Day Protectant, read-out: Disease Control ERYSCI 1 DP
# Procedure: Technical grades of materials were dissolved in acetone, which were then mixed with nine volumes of water containing 110 ppm Triton X-100. The fungicide solutions were applied onto wheat seedlings using an automated booth sprayer to run-off. All sprayed plants were allowed to air dry prior to further handling. All fungicides were evaluated using the aforementioned method for their activity vs. all target diseases. Wheat leaf blotch and brown rust activity were also evaluated using track spray applications, in which case the fungicides were formulated as EC formulations, containing 0.1% Trycol 5941 in the spray solutions. Wheat plants (variety Yuma) were grown from seed in a greenhouse in 50% mineral soil/50% soil-less Metro mix until the first leaf was fully emerged, with 7-10 seedlings per pot. These plants were inoculated with an aqueous spore suspension of Septoria tritici either prior to or after fungicide treatments. After inoculation the plants were kept in 100% relative humidity (one day in a dark dew chamber followed by two to three days in a lighted dew chamber at 20° C.) to permit spores to germinate and infect the leaf. The plants were then transferred to a greenhouse set at 20° C. for disease to develop. When disease symptoms were fully expressed on the 1st leaves of untreated plants, infection levels were assessed on a scale of 0 to 100 percent disease severity. Percent disease control was calculated using the ratio of disease severity on treated plants relative to untreated plants. Cucumber seedlings (variety Bush Pickle) were grown in soil-less Metro mix, with one plant per pot, and used in the test when 12 to 14 days old. Plants were inoculated with a spore suspension 24 hr following fungicide treatments. After inoculation the plants remained in the greenhouse set at 20° C. until disease was fully expressed. Fungicide formulation, application and disease assessment on the sprayed leaves followed the procedures as described in the Example A.
# Phakopsora pachyrhizi = experiment: Asian Soybean Rust (PHAKPA) disease control; conditions: Phakopsora pachyrhizi, topical
# Procedure, shortened: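 Compounds in acetone diluted with nine volumes water containing 0.011% Tween 20, sprayed to run-off on two-week-old Williams 82 soybean seedlings, inoculated 3 days before or 1 day after treatment. Plants held 24 h in dark dew room at 22 °C, 100% RH, then at 23 °C; disease severity scored on sprayed leaves.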
# [1] = tested on: Blumeria graminis f. sp. hordei; Synonym: Erysiphe graminis f. sp. hordei; experiment: Barley Powdery Mildew (ERYSGH) disease control; conditions: Blumeria graminis, 24 h, 1 Day Protectant, read-out: Disease Control ERYSGH 1 DP
# Procedure: Technical grades of materials were dissolved in acetone, which were then mixed with nine volumes of water containing 110 ppm Triton X-100. The fungicide solutions were applied onto wheat seedlings using an automated booth sprayer to run-off. All sprayed plants were allowed to air dry prior to further handling. All fungicides were evaluated using the aforementioned method for their activity vs. all target diseases. Wheat leaf blotch and brown rust activity were also evaluated using track spray applications, in which case the fungicides were formulated as EC formulations, containing 0.1% Trycol 5941 in the spray solutions. Wheat plants (variety Yuma) were grown from seed in a greenhouse in 50% mineral soil/50% soil-less Metro mix until the first leaf was fully emerged, with 7-10 seedlings per pot. These plants were inoculated with an aqueous spore suspension of Septoria tritici either prior to or after fungicide treatments. After inoculation the plants were kept in 100% relative humidity (one day in a dark dew chamber followed by two to three days in a lighted dew chamber at 20° C.) to permit spores to germinate and infect the leaf. The plants were then transferred to a greenhouse set at 20° C. for disease to develop. When disease symptoms were fully expressed on the 1st leaves of untreated plants, infection levels were assessed on a scale of 0 to 100 percent disease severity. Percent disease control was calculated using the ratio of disease severity on treated plants relative to untreated plants. Barley seedlings (variety Harrington) were propagated in soil-less Metro mix, with each pot having 8 to 12 plants, and used in the test when first leaf was fully emerged. Test plants were inoculated by dusting with infected stock plants 24 hr after fungicide treatments. After inoculation the plants were kept in a greenhouse set at 20° C. for disease to develop. Fungicide formulation, application and disease assessment on the sprayed leaves followed the procedures as described in the Example A.
# [2] = 24 h, 1 Day Protectant, read-out: Disease Control PHAKPA 1DP
# [3] = 72 h, 3 Day Curative, read-out: Disease Control PHAKPA 3DC
SMILES,pest or weed control at 100 ppm (Uncinula necator),pest or weed control at 100 ppm (Erysiphe cichoracearum),pest or weed control at 25 ppm (Phakopsora pachyrhizi; [2]),pest or weed control at 25 ppm (Phakopsora pachyrhizi; [3]),pest or weed control at 100 ppm [1]
CCOCC(=O)OCOc1c(OC)ccnc1C(=O)N[C@H]1CCC[C@H](Cc2ccccc2)[C@@H](OCC2CC2)[C@H](C)OC1=O [Compound F173],0 to 80%,80 to 100%,80 to 100%,80 to 100%,80 to 100%
CCCO[C@@H]1[C@@H](Cc2ccc(F)cc2)CCC[C@H](NC(=O)c2nccc(OC)c2OCOC(=O)COCC)C(=O)O[C@H]1C [Compound F167],80 to 100%,80 to 100%,80 to 100%,0 to 80%,80 to 100%
CCCO[C@@H]1[C@@H](Cc2ccc(F)cc2)CCC[C@H](NC(=O)c2nccc(OC)c2OCOC(C)=O)C(=O)O[C@H]1C [Compound F101],80 to 100%,80 to 100%,80 to 100%,0 to 80%,80 to 100%
CC[C@H]1CCC[C@H](NC(=O)c2nccc(OC)c2OC(C)=O)C(=O)O[C@@H](C)[C@@H]1Oc1ccccc1 [Compound F81],80 to 100%,0 to 80%,80 to 100%,80 to 100%,0 to 80%
CCCO[C@@H]1[C@@H](CCC(C)C)CCC[C@H](NC(=O)c2nccc(OC)c2OCOC(C)=O)C(=O)O[C@H]1C [Compound F92],80 to 100%,80 to 100%,80 to 100%,80 to 100%,0 to 80%
COc1ccnc(C(=O)N[C@H]2CCC[C@H](CC3CCCCC3)[C@@H](OCC(C)C)[C@H](C)OC2=O)c1OCOC(C)=O [Compound F113],0 to 80%,80 to 100%,80 to 100%,0 to 80%,80 to 100%
COc1ccnc(C(=O)N[C@H]2CCC[C@H](Cc3ccc(F)cc3)[C@@H](OCC3CC3)[C@H](C)OC2=O)c1OC(C)=O [Compound F67],0 to 80%,0 to 80%,80 to 100%,0 to 80%,80 to 100%
COc1ccnc(C(=O)N[C@H]2CCC[C@H](Cc3ccccc3)[C@@H](OCC3CC3)[C@H](C)OC2=O)c1OCOC(=O)C(C)C [Compound F152],0 to 80%,80 to 100%,80 to 100%,80 to 100%,80 to 100%
COc1ccnc(C(=O)N[C@H]2CCC[C@H](Cc3ccccc3)[C@@H](OCC(C)C)[C@H](C)OC2=O)c1OC(C)=O [Compound F70],80 to 100%,80 to 100%,80 to 100%,0 to 80%,80 to 100%
COCC[C@H]1CCC[C@H](NC(=O)c2nccc(OC)c2OC(C)=O)C(=O)O[C@@H](C)[C@@H]1Oc1ccccc1 [Compound F78],0 to 80%,0 to 80%,80 to 100%,80 to 100%,0 to 80%
CCCO[C@@H]1[C@@H](Cc2ccccc2)CCC[C@H](NC(=O)c2nccc(OC)c2OCOC(=O)COCC)C(=O)O[C@H]1C [Compound F174],80 to 100%,80 to 100%,80 to 100%,0 to 80%,80 to 100%
COCC[C@H]1CCC[C@H](NC(=O)c2nccc(OC)c2OCOC(C)=O)C(=O)O[C@@H](C)[C@@H]1Oc1ccccc1 [Compound F130],0 to 80%,0 to 80%,80 to 100%,80 to 100%,0 to 80%
CCCO[C@@H]1[C@@H](Cc2ccccc2)CCC[C@H](NC(=O)c2nccc(OC)c2OCOC(C)=O)C(=O)O[C@H]1C [Compound F109],80 to 100%,80 to 100%,80 to 100%,0 to 80%,80 to 100%
CCOCC(=O)OCOc1c(OC)ccnc1C(=O)N[C@H]1CCC[C@H](CCF)[C@@H](OCC(C)C)[C@H](C)OC1=O [Compound F181],0 to 80%,0 to 80%,80 to 100%,80 to 100%,0 to 80%
CCOCC(=O)OCOc1c(OC)ccnc1C(=O)N[C@H]1CCC[C@H](Cc2ccccc2)[C@@H](OCC(C)C)[C@H](C)OC1=O [Compound F172],0 to 80%,80 to 100%,80 to 100%,0 to 80%,80 to 100%
CCCO[C@@H]1[C@@H](CCC(C)C)CCC[C@H](NC(=O)c2nccc(OC)c2OC(C)=O)C(=O)O[C@H]1C [Compound F64],80 to 100%,80 to 100%,80 to 100%,80 to 100%,80 to 100%
